Assay results from patent publication US8283353B2, “Fused ring compound and use thereof” (Takeda Pharmaceutical Company Limited, priority 2009, dated 2012).

Assays:
[1] = target: T1, human PPARγ (Homo sapiens, UniProt P37231); assay: PPARγ agonistic activity: luciferase reporter assay in PPARγ:RXRα:4ERPP/CHO-K1 cells; type: cell-based; details: CHO-K1, test compound 10^−6 M; luciferase activity of control compound X (1 μM) = 100%, non-administration group = 0%
T1 construct: expressed in transfected cells
T1 sequence (P37231 1-477 isoform P37231-2): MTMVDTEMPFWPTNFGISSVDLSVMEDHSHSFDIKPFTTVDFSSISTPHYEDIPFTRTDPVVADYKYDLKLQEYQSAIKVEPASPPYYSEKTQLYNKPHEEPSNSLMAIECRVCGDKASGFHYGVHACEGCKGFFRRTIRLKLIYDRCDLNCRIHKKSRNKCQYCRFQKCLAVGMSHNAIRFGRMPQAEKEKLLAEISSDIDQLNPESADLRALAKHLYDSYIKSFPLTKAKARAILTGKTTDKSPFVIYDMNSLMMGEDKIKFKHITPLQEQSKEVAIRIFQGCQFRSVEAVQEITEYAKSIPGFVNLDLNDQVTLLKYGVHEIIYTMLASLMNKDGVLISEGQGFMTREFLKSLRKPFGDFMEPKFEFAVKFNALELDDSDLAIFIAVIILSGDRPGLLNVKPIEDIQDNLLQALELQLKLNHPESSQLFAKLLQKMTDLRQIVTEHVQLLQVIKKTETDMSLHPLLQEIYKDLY
T1 sequence (P19793 1-462 partner): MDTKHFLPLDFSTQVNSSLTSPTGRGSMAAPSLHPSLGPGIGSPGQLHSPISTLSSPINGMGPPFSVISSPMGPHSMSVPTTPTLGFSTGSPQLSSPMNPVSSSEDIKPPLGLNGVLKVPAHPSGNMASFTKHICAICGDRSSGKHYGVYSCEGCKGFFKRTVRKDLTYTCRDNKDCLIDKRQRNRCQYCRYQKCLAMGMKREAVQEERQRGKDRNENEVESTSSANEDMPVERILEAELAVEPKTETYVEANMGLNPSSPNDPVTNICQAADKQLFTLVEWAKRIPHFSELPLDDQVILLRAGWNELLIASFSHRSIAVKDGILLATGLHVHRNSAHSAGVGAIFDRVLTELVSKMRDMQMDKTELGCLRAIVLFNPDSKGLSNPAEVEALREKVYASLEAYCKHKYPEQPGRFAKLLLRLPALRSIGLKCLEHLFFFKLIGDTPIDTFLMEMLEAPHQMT
How it was run: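 Activity is expressed relative to untreated cells (0%) and 1 μM reference compound X (100%), from luciferase luminescence. Reporter line: PPARγ:RXRα:4ERPP/CHO-K1, exposed to compound for one day at 37 °C in F12 medium containing 0.1% fatty-acid-free BSA.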

[2] = target: T2, human AT1 receptor (Homo sapiens, UniProt P30556); assay: AT1 receptor antagonistic activity: [125I]-angiotensin II binding assay on human AT1 receptor-expressing CHO-K1 cellular membrane fraction; details: 22.5 pM [125I]-angiotensin II, 1 hr room temperature
T2 construct: expressed in transfected cells; membrane fraction
T2 sequence (P30556 1-359): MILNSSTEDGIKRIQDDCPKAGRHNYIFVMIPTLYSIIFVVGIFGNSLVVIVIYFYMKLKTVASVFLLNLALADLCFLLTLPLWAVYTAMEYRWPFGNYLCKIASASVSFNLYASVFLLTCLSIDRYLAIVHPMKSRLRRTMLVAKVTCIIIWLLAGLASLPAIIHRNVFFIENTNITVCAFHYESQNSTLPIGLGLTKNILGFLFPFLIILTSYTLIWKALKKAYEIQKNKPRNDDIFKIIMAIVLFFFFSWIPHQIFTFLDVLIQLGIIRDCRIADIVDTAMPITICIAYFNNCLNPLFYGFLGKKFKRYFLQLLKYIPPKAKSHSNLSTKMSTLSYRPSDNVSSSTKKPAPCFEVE
How it was run: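 Competition binding used radiolabelled angiotensin II on stably transfected CHO-K1 membrane fractions in Tris pH 7.4/MgCl2 buffer, optionally containing 0.3 mg/mL fatty acid-free BSA, 1 hr at room temperature. Filtration onto GF/C separated bound tracer, and nonspecific binding was measured with candesartan.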

Row | SMILES | activation at 1 µM [1] [%] | IC50 [2] [nM]
1 | CCCc1c(Cc2ccc(-c3ccccc3-c3noc(=O)[nH]3)cc2)c(=O)n([C@H]2CC[C@H](Oc3ccc(C(C)=O)cc3)CC2)c2ncnn12 [Example 278, 4-[trans-4-(4-acetylphenoxy)cyclohexyl]-6-{[2′-(5-oxo-4,5-dihydro-1,2,4-oxadiazol-3-yl)biphenyl-4-yl]methyl}-7-propyl[1,2,4]triazolo[1,5-a]pyrimidin-5(4H)-one] | 22 | 2.7
2 | CCCc1c(C(C)c2ccc(-c3ccccc3-c3noc(=O)[nH]3)cc2)c(=O)n([C@H]2CC[C@H](OCC(C)(C)O)CC2)c2ncnn12 (stereo partly drawn) [Example 131, 4-[trans-4-(2-hydroxy-2-methylpropoxy)cyclohexyl]-6-{1-[2′-(5-oxo-4,5-dihydro-1,2,4-oxadiazol-3-yl)biphenyl-4-yl]ethyl}-7-propyl[1,2,4]triazolo[1,5-a]pyrimidin-5(4H)-one] | 15 | 2.9
3 | CCCCc1c(Cc2ccc(-c3ccccc3-c3noc(=O)[nH]3)cc2)c(=O)n([C@H]2CC[C@H](OCC(C)(C)O)CC2)c2ncnn12 [Example 232, 7-butyl-4-[trans-4-(2-hydroxy-2-methylpropoxy)cyclohexyl]-6-{[2′-(5-oxo-4,5-dihydro-1,2,4-oxadiazol-3-yl)biphenyl-4-yl]methyl}[1,2,4]triazolo[1,5-a]pyrimidin-5(4H)-one] | 35 | 2.1
4 | CCCc1c(Cc2ccc(-c3ccccc3-c3noc(=O)[nH]3)cc2)c(=O)n(C2CCCCC2)c2nc(C)nn12 [Example 78, 4-cyclohexyl-2-methyl-6-{[2′-(5-oxo-4,5-dihydro-1,2,4-oxadiazol-3-yl)biphenyl-4-yl]methyl}-7-propyl[1,2,4]triazolo[1,5-a]pyrimidin-5(4H)-one] | 21 | 1.8
5 | CCCc1c(Cc2ccc(-c3ccccc3-c3noc(=O)[nH]3)cc2)c(=O)n(C2CCN(Cc3ccccc3)CC2)c2ncnn12 [Example 373, 4-(1-benzylpiperidin-4-yl)-6-{[2′-(5-oxo-4,5-dihydro-1,2,4-oxadiazol-3-yl)biphenyl-4-yl]methyl}-7-propyl[1,2,4]triazolo[1,5-a]pyrimidin-5(4H)-one] | 16 | 3.2
6 | CCCc1c(Cc2ccc(-c3ccccc3-c3noc(=O)[nH]3)cc2)c(=O)n(CCC)c2ncnn12 [Example 29, 6-{[2′-(5-oxo-4,5-dihydro-1,2,4-oxadiazol-3-yl)biphenyl-4-yl]methyl}-4,7-dipropyl[1,2,4]triazolo[1,5-a]pyrimidin-5(4H)-one] | 16 | 3
7 | CCCc1c(Cc2ccc(-c3ccccc3-c3noc(=O)[nH]3)cc2F)c(=O)n(C2CCOC(C)(C)C2)c2nc(C)nn12 (stereo not shown) [Example 136, 4-(2,2-dimethyltetrahydro-2H-pyran-4-yl)-6-{[3-fluoro-2′-(5-oxo-4,5-dihydro-1,2,4-oxadiazol-3-yl)biphenyl-4-yl]methyl}-2-methyl-7-propyl[1,2,4]triazolo[1,5-a]pyrimidin-5(4H)-one] | 17 | 1.3
8 | CCCc1c(Cc2ccc(-c3ccccc3-c3noc(=O)[nH]3)cc2)c(=O)n([C@H]2CC[C@H](OC(C)C(C)(C)O)CC2)c2ncnn12 (single isomer, unassigned) [Example 319, 4-[trans-4-(2-hydroxy-1,2-dimethylpropoxy)cyclohexyl]-6-{[2′-(5-oxo-4,5-dihydro-1,2,4-oxadiazol-3-yl)biphenyl-4-yl]methyl}-7-propyl[1,2,4]triazolo[1,5-a]pyrimidin-5(4H)-one (retention time: long)] | 16 | 2
9 | CCCc1c(Cc2ccc(-c3ccccc3-c3noc(=O)[nH]3)cc2)c(=O)n([C@H]2CC[C@H](OC3(C(C)(C)O)CC3)CC2)c2ncnn12 [Example 363, 4-(trans-4-{[1-(1-hydroxy-1-methylethyl)cyclopropyl]oxy}cyclohexyl)-6-{[2′-(5-oxo-4,5-dihydro-1,2,4-oxadiazol-3-yl)biphenyl-4-yl]methyl}-7-propyl[1,2,4]triazolo[1,5-a]pyrimidin-5(4H)-one] | 22 | 2.3
10 | CCCc1c(Cc2ccc(-c3ccccc3-c3noc(=O)[nH]3)cc2)c(=O)n([C@H]2CC[C@H](OCC(O)(CC)CC)CC2)c2nc(C)nn12 [Example 197, 4-[trans-4-(2-ethyl-2-hydroxybutoxy)cyclohexyl]-2-methyl-6-{[2′-(5-oxo-4,5-dihydro-1,2,4-oxadiazol-3-yl)biphenyl-4-yl]methyl}-7-propyl[1,2,4]triazolo[1,5-a]pyrimidin-5(4H)-one] | 17 | 2

The next lines start with the values.

Row | activation at 1 µM [1] [%] | IC50 [2] [nM] | SMILES
11 | 24 | 1.9 | CCCc1c(Cc2ccc(-c3ccccc3-c3noc(=O)[nH]3)cc2)c(=O)n([C@H]2CC[C@H](OCC(C)=O)CC2)c2ncnn12 [Example 215, 6-{[2′-(5-oxo-4,5-dihydro-1,2,4-oxadiazol-3-yl)biphenyl-4-yl]methyl}-4-[trans-4-(2-oxopropoxy)cyclohexyl]-7-propyl[1,2,4]triazolo[1,5-a]pyrimidin-5(4H)-one]
12 | 34 | 1.6 | CCCc1c(Cc2ccc(-c3ccccc3-c3noc(=O)[nH]3)cc2)c(=O)n(C2CCC(=CCO)CC2)c2ncnn12 (stereo not shown) [Example 191, 4-[4-(2-hydroxyethylidene)cyclohexyl]-6-{[2′-(5-oxo-4,5-dihydro-1,2,4-oxadiazol-3-yl)biphenyl-4-yl]methyl}-7-propyl[1,2,4]triazolo[1,5-a]pyrimidin-5(4H)-one]
13 | 33 | 2.1 | CCCc1c(Cc2ccc(-c3ccccc3-c3noc(=O)[nH]3)cc2)c(=O)n(C2CCC(OCCOC)CC2)c2ncnn12 (stereo not shown) [Example 154, 4-[4-(2-methoxyethoxy)cyclohexyl]-6-{[2′-(5-oxo-4,5-dihydro-1,2,4-oxadiazol-3-yl)biphenyl-4-yl]methyl}-7-propyl[1,2,4]triazolo[1,5-a]pyrimidin-5(4H)-one]
14 | 35 | 1.6 | CCCc1c(Cc2ccc(-c3ccccc3-c3noc(=O)[nH]3)cc2)c(=O)n([C@H]2CC[C@@]3(CCCO3)CC2)c2ncnn12 [Example 151, 4-[(5R,8R)-1-oxaspiro[4.5]dec-8-yl]-6-{[2′-(5-oxo-4,5-dihydro-1,2,4-oxadiazol-3-yl)biphenyl-4-yl]methyl}-7-propyl[1,2,4]triazolo[1,5-a]pyrimidin-5(4H)-one]
15 | 31 | 2.5 | CCCc1c(Cc2ccc(-c3ccccc3-c3noc(=O)[nH]3)cc2)c(=O)n([C@H]2CC[C@@](C)(O)CC2)c2ncnn12 [Example 275, 4-(cis-4-hydroxy-4-methylcyclohexyl)-6-{[2′-(5-oxo-4,5-dihydro-1,2,4-oxadiazol-3-yl)biphenyl-4-yl]methyl}-7-propyl[1,2,4]triazolo[1,5-a]pyrimidin-5(4H)-one]
16 | 58 | 1.4 | CCCc1c(Cc2ccc(-c3ccccc3-c3noc(=O)[nH]3)cc2)c(=O)n([C@H]2CC[C@]3(CCCO3)CC2)c2ncnn12 [Example 150, 4-[(5S,8S)-1-oxaspiro[4.5]dec-8-yl]-6-{[2′-(5-oxo-4,5-dihydro-1,2,4-oxadiazol-3-yl)biphenyl-4-yl]methyl}-7-propyl[1,2,4]triazolo[1,5-a]pyrimidin-5(4H)-one]
17 | 52 | 1.9 | CCCCc1c(Cc2ccc(-c3ccccc3-c3noc(=O)[nH]3)cc2)c(=O)n(C2CCC(OC)CC2)c2ncnn12 (stereo not shown) [Example 148, 7-butyl-4-(4-methoxycyclohexyl)-6-{[2′-(5-oxo-4,5-dihydro-1,2,4-oxadiazol-3-yl)biphenyl-4-yl]methyl}[1,2,4]triazolo[1,5-a]pyrimidin-5(4H)-one]
